Test results taken from ChEMBL document CHEMBL1201862, “PubChem BioAssay data set” (2004).
Where a name gives a salt, the structure may show the parent alone. Calls of active or inactive are those of the source.

Columns and labels:
Vero = assay: cytotoxicity of synthesized analogs in Vero cells, SAR follow-up, cytotoxicity control for West Nile virus antiviral project, cell-based, set II (AID 2402); format: functional; settings: Chlorocebus sabaeus
[1] = molecular target: Mitogen-activated protein kinase 10 (Homo sapiens, UniProt P53779); assay: Dose response biochemical screening assay for inhibitors of c-Jun N-Terminal Kinase 3 (JNK3). [Related pubchem assays: 746 ]
Protein RecA = molecular target: T1, Protein RecA (Mycobacterium tuberculosis, UniProt P9WHJ3); assay: Fluorescence Cell-Free Homogeneous Dose Retest to Identify Inhibitors of RecA-Intein Splicing Activity. [Related pubchem assays (depositor defined):AID2097, AID2223, AID489010, AID492950]; format: functional
T1 sequence (P9WHJ3 whole entry): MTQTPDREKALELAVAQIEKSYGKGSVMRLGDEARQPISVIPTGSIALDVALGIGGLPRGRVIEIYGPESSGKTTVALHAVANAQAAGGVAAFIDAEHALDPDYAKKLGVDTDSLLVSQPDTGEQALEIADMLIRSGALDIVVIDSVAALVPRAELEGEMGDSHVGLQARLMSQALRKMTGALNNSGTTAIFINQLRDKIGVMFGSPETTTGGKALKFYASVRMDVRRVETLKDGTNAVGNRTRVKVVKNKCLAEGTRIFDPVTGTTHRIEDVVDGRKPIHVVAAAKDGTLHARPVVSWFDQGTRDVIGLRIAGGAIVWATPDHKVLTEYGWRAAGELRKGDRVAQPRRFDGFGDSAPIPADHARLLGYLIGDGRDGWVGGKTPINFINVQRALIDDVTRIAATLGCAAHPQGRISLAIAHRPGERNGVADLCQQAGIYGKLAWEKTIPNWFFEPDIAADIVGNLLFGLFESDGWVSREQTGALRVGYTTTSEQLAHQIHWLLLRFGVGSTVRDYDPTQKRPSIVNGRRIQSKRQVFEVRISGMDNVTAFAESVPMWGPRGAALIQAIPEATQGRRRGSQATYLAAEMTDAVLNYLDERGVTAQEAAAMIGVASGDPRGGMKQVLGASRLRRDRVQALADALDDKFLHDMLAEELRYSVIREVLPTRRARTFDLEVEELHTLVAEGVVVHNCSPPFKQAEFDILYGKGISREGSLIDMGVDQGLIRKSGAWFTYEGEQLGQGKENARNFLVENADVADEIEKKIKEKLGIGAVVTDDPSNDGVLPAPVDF

[2] = THP-1 cell cytotoxicity, dose response, cytotoxicity control for Vif-APOBEC3G degradation inhibitor project, THP-1 cells (AID 1117359); format: functional; settings: Human immunodeficiency virus 1, THP-1
Protein Tat = Protein Tat (Human immunodeficiency virus type 1 group M subtype B (isolate HXB2)(HIV-1), UniProt P04608); format: functional;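 also: tat binding to TAR RNA read out by fluorescence polarization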
[3] = molecular target: T2, Replicative DNA helicase DnaB (Mycobacterium tuberculosis, UniProt P9WMR3); assay: DnaB intein splicing inhibitors, dose response, biochemical, cell-free fluorescence (AID 449749); format: functional
T2 sequence (P9WMR3 whole entry): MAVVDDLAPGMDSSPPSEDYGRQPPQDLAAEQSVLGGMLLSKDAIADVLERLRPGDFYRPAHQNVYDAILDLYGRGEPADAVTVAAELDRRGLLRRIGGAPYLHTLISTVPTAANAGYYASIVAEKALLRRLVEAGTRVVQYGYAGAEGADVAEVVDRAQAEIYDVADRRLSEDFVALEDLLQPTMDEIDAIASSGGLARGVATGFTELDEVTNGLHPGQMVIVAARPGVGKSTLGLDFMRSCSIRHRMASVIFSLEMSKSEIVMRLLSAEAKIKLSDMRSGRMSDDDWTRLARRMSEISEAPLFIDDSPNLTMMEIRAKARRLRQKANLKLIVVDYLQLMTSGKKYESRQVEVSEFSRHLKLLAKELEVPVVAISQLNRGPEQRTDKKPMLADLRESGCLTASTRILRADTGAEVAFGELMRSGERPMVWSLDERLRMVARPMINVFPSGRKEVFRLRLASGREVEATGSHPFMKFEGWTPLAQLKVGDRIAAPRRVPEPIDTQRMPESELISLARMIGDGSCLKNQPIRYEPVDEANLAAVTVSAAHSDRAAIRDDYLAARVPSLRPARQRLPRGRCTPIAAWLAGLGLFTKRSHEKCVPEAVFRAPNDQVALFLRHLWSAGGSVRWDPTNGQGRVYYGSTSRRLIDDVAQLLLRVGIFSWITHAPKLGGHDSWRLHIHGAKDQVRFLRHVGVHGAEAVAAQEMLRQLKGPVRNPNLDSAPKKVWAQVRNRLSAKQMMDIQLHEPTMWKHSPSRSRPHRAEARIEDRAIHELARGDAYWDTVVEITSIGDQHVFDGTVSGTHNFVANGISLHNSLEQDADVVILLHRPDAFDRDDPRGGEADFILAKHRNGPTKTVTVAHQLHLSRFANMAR

[4] = Late stage results for the probe development effort to identify inhibitors of Plasmodium falciparum gametocytes: Luminescence-based cell-based high throughput dose response assay to identify inhibitors of viability of late stage Plasmodium falciparum gametocytes.; format: functional
[5] = HepG2 cell cytotoxicity, dose response, cytotoxicity control, plate reader, dry powder, set 6 (AID 743311); format: functional, cell-based
[6] = Dose-response inhibition of insulin secretion in a rat insulinoma line at 5 mM glucose (AID 1117331); format: functional, cell-based; settings: INS-1E
cells = format: functional, cell-based; settings: INS-1E
[7] = Glucagon-like peptide 1 release potency, NCI-H716 cell line, dose-response, half-maximal inhibitory concentration (AID 1117344); format: functional, cell-based
[8] = half-maximal inhibitory concentration for glucagon-like peptide-1 release, STC-1 cell line, dose-response (AID 1117345); format: functional, cell-based
[9] = Concentration-dependent survival of SW480 colon cancer line, luminescence detection with CellTiter-Glo, half-maximal inhibitory concentration (AID 1117338); format: functional
[10] = SNU-C1 cell viability reduction, dose response, CellTiter-Glo luminescence (AID 1117323); format: functional, cell-based
[11] = HeLa 4N DNA content increase, dose response, cell-based, IC50 (AID 1117351); format: functional
[12] = cytotoxicity toward HCT116 cells – cell-based, CellTiter-Glo luminescence, IC50, dose response (AID 1117332); format: functional; settings: HCT-116
[13] = RKO cell viability reduction, dose response, CellTiter-Glo luminescence (AID 1117322); format: functional
[14] = cytotoxicity toward Colo320 cells – cell-based, CellTiter-Glo luminescence, IC50, dose response (AID 1117334); format: functional; settings: COLO 320
[15] = HCT116 cell viability decrease, GSK3B pretreatment – CellTiter-Glo, IC50, dose response (AID 1117339); format: functional; settings: HCT-116
[16] = cytotoxicity toward HT-29 cells – cell-based, CellTiter-Glo luminescence, IC50, dose response (AID 1117330); format: functional
[17] = CellTiter-Glo luminescent dose response of DLD-1 viability loss (AID 1117352); format: functional
[18] = HeLa 2N DNA content increase, dose response, cell-based, IC50 (AID 1117349); format: functional

Sequence of Protein Tat (P04608 whole entry): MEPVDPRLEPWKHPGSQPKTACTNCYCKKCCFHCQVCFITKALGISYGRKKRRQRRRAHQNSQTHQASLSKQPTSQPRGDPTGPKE
Sequence of Mitogen-activated protein kinase 10 (P53779 whole entry): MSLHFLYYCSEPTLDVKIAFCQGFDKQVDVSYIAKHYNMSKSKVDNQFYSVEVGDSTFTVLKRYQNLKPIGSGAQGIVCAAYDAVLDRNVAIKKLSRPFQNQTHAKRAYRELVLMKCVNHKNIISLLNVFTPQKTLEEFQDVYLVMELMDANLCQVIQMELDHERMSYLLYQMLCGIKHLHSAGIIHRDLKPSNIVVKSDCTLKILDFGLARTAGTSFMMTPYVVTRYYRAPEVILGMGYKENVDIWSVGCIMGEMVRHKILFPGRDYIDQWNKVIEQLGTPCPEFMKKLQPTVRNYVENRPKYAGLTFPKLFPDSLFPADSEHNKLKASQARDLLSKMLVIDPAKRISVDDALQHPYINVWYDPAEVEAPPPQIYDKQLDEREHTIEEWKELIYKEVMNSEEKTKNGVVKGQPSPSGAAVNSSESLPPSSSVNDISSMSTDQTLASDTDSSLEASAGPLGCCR

For OC1c2cc(Br)ccc2N=C2CCCCN21 (configuration not stated), which CC50 (Vero) is on record?
Its CC50 is > 200 µM (active).

With Cc1ccccc1-n1nc(C)c2cc(C(=O)N3CCOCC3)sc21 as the molecule, how does the IC50 [1] read?
The IC50 was > 93.1 µM (not active).

Which results are given for CC1=CC(C)(C)N2C(=O)/C(=N/c3ccc(O)cc3)c3cccc1c32?
EC50 (Protein RecA): > 380 µM (inactive); CC50 [2]: 9.38 µM (active); IC50 (Protein Tat): > 100 µM (active); AC50 [3]: > 380 µM (inactive)

For Cc1cnc(NC(=O)c2cn(-c3ccccc3)nc2-c2cccnc2)s1, which IC50 [4] is on record?
Its IC50 is > 74.4 µM (inactive).

With O=S(=O)(c1ccc(OCCn2cnc3ccccc32)cc1)N1CCOCC1 as the molecule, how does the AC50 [5] read?
The AC50 was > 52 µM (inactive).

With NC[C@H]1CC[C@H](C(=O)Oc2ccc(CCC(=O)O)cc2)CC1 [CETRAXATE HYDROCHLORIDE] as the molecule, how does the IC50 [6] read?
The IC50 was > 33.3 µM (inactive).

And the IC50 (cells)?
Its IC50 is > 33.3 µM (inactive).

Which IC50 [7] does the source give for CCCCC(CC)CN1CN(CC(CC)CCCC)CC(C)(N)C1 (configuration not stated) [HEXETIDINE] here?
Its IC50 is 36.4 µM (inactive).

What about the IC50 [8] of the same molecule?
The IC50 was 26.6 µM (inactive).

Which results are given for Cc1nc(N)nc(N)c1-c1ccc(Cl)c(Cl)c1 [METOPRINE]?
IC50 [9]: 0.512 µM (active); IC50 [10]: 2.16 µM (active); IC50 [11]: > 10 µM (inactive); IC50 [12]: 0.413 µM (active); IC50 [13]: 0.117 µM (active); IC50 [14]: 2.03 µM (active); IC50 [15]: 0.0589 µM (active); IC50 [16]: 0.932 µM (active); IC50 [17]: 0.634 µM (active); IC50 [18]: > 10 µM (inactive)
